# Experimental data as given in patent US6423696B1, “Inhibition of arylamine N-acetyl transferase” (The United States of America, as represented by the …, priority 1999, dated 2002).
# Like-named read-outs stand apart in the source and are kept apart here.
# Assays:
# NAT-1 [1] = molecular target: T1, NAT-1 (Homo sapiens, UniProt P18440); test: Acetylation in human liver subcellular preparation (cytosol), NAT-1 substrates, HPLC of N-acetylated metabolites
# T1 sequence (P18440 1-290): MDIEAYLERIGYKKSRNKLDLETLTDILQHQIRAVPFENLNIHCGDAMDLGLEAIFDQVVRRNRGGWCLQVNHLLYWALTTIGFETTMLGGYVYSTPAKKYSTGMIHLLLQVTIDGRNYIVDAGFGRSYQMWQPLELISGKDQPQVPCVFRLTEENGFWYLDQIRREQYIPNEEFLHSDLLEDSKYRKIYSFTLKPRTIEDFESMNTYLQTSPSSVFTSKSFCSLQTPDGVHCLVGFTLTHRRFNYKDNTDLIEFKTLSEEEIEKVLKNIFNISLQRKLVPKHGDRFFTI
# Procedure: Human liver was homogenized and prepared by high-speed differential centrifugation. A preliminary centrifugation was performed at 13,000 g for 20 min.
# The formation of N-acetylated metabolites was quantified by HPLC. Samples from the incubates were injected onto a reverse-phase column (e.g., Waters Symmetry C18, 5 micron, 4.6×150 mm). […] Drugs and their N-acetylated metabolites were quantitated by UV absorption using a diode-array detector.
# The substrates assayed above were then co-incubated with human liver subcellular preparations.
# NAT-1 [2] = molecular target: T1, NAT-1; details: human volunteer
# Procedure: On the fourth and fifth days, PAS was also administered at its standard dose of 4 g every 8 hours.
# NAT-1 [3] = molecular target: T1, NAT-1; details: 4 hours
# Procedure: Human hepatocytes were incubated at 37° C. at a ratio of 1 million cells per ml in modified Williams E buffer. Either cryopreserved hepatocytes in suspension or freshly-isolated hepatocytes attached to microtiter plates were used. The reaction was initiated by addition of substrate, and terminated after 4 hours by the addition of perchloric acid. As before, parallel incubations were conducted for drug alone versus drug plus potential inhibitors. Percent inhibition was calculated from the ratio of [Acetylated metabolite]/[parent] with and without the potential inhibitor.
# NAT-2 [4] = molecular target: T2, NAT-2 (Homo sapiens, UniProt P11245); test: Acetylation in human hepatocyte culture, NAT-2 substrates; format: cell-based; details: human hepatocytes
# T2 sequence (P11245 1-290): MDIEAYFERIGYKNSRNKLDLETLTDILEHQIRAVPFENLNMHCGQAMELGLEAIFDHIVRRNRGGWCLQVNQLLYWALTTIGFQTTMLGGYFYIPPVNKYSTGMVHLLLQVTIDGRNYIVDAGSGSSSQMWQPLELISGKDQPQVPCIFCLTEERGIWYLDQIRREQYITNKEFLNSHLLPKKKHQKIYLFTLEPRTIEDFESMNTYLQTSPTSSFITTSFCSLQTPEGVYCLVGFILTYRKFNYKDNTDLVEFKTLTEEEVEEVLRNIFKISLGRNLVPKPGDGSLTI
# Procedure: INH, DDS and SMZ were incubated with human hepatocytes as described in Example 1. Parallel cultures were conducted for each drug alone and each drug plus dichlorphenamide as a potential inhibitor. An additional culture of DDS was incubated with SMZ, a potential inhibitor. […] In addition, SMZ inhibited acetylation of DDS.
# NAT-2 [5] = molecular target: T2, NAT-2; test: Acetylation in human liver subcellular preparation (cytosol), NAT-2 substrates, cross inhibition; format: biochemical; design: from tissue; host or cells: human liver cytosol (105,000 g supernatant); key to inhibition of acetylation of substrate DDS / inhibition of acetylation of substrate SMZ / inhibition of acetylation of substrate INH: ++ = strong inhibition; −− = no inhibition; details: for formation of acetylated metabolite, substrate incubated alone: incubated separately with human liver cytosol
# Procedure: The reaction was terminated by the addition of perchloric acid to a final concentration of 1.5%.
# INH, DDS, SMZ were incubated with human liver subcellular preparations as described in Example 1. The reactions were allowed to proceed for thirty minutes at 37° C. before termination by addition of perchloric acid. […] For INH, 1-octanesulfonic acid (5 mM) was added to the mobile phase.
# [6] = human liver cytosol, 30 min, 37° C.
smiles,measurement,setting,value
"Nc1ccc(C(=O)O)c(O)c1 [PAS, para-amino-salicylate]",inhibition of acetylation to Ac-PABA,"NAT-1 [1]; 200 μM inhibitor co-incubated with 20 μM PABA, human liver cytosol, 15 min, 37° C.",blockage of all measurable acetylation
same,inhibition of acetylation to Ac-SMX,"NAT-1 [1]; 200 μM inhibitor co-incubated with 200 μM SMX, human liver cytosol, 15 min, 37° C.",50%
same,"formation of acetylated metabolite, substrate incubated alone","NAT-1 [1]; human liver subcellular preparation, HPLC, FIG. 1",a single metabolic peak
same,PAS concentrations in plasma on Day 5,"NAT-1 [2]; PAS 4 g every 8 hours, HPLC, FIG. 5",exceed the levels required to inhibit NAT-1
same,"plasma concentration of Ac-SMX, Day 5 (with PAS) vs Day 3 (baseline)","NAT-1 [2]; SMX 500 mg every 12 hours for 5 days, PAS 4 g every 8 hours on days 4 and 5, FIG. 2",almost completely abolished
same,reduction of Ac-SMX formation,"NAT-1 [3]; 200 μM PAS co-incubated with 200 μM SMX, human hepatocytes",60%
same,"formation of acetylated metabolite, substrate incubated alone",NAT-1 [3]; 200 μM incubated separately with human hepatocytes,formation of Ac-PAS and Ac-SMX
NS(=O)(=O)c1cc(Cl)c(Cl)c(S(N)(=O)=O)c1 [dichlorphenamide],"inhibition of acetylation of all substrates (INH, DDS, SMZ)","NAT-2 [4]; substrates INH, DDS and SMZ",strongly inhibited
same,inhibition of acetylation of substrate DDS,NAT-2 [5]; [6],++
same,inhibition of acetylation of substrate INH,"NAT-2 [5]; substrate INH, human liver cytosol, 30 min, 37° C.",−−
same,inhibition of acetylation of substrate SMZ,NAT-2 [5]; [6],++
"NNC(=O)c1ccncc1 [INH, isoniazid]","formation of acetylated metabolite, substrate incubated alone",NAT-2 [5],Acetylated metabolites were found
same,inhibition of acetylation of substrate DDS,NAT-2 [5]; [6],++
"Nc1ccc(S(=O)(=O)c2ccc(N)cc2)cc1 [DDS, dapsone]","formation of acetylated metabolite, substrate incubated alone",NAT-2 [5],Acetylated metabolites were found
"CCC1(c2ccc(N)cc2)CCC(=O)NC1=O (stereo not shown) [AG, aminoglutethimide]",inhibition of acetylation of substrate SMZ,NAT-2 [5]; [6],++
"Nc1ccc(C(=O)O)cc1 [PABA, para-amino-benzoic acid]",inhibition of acetylation to Ac-PAS,"NAT-1 [1]; 200 μM inhibitor co-incubated with 20 μM PAS, human liver cytosol, 15 min, 37° C.",no Ac-PAS was detected
"Cc1cc(C)nc(NS(=O)(=O)c2ccc(N)cc2)n1 [SMZ, sulphamethazine]",inhibition of acetylation of DDS,NAT-2 [4]; substrate DDS,inhibited
same,"formation of acetylated metabolite, substrate incubated alone",NAT-2 [5],Acetylated metabolites were found
same,inhibition of acetylation of substrate DDS,NAT-2 [5]; [6],++
